In publication PMC8557901 (Microbiology Spectrum, 2021):

Experiments:
[1] = tested on: P. falciparum F32-TEM (artemisinin-sensitive); assay: Standard in vitro chemosensitivity assay (hypoxanthine uptake), F32-TEM; assay type: cell-based; conditions: Plasmodium falciparum, F32, 48 h, read-out: Mean EC50 ± SD
Method: The Plasmodium falciparum artemisinin-resistant strain F32-ART5 and its twin artemisinin-sensitive line F32-TEM ([30], [31]) were cultivated at 37°C with 5% CO2 in human red blood cells (EFS [French Blood Bank]) diluted to 2% hematocrit in RPMI 1640 medium supplemented with 5% human serum (EFS) as previously reported ([47]).
In vitro susceptibility of P. falciparum parasites was determined by using the standard hypoxanthine uptake inhibition assay as described previously ([51]) with some modifications ([52]). After D-sorbitol treatment, parasites synchronized at the ring stage were exposed for 48 h, with [^3H]hypoxanthine (Perkin Elmer, France), to a range of concentrations of the different tested compounds. […] Each result represents 3 independent experiments.

Microsomal stability = assay type: in vitro ADME; conditions: pH 7.4; female mouse microsomes (CD-1), 37°C; read-out: half-life (t1/2)
Method: The tested product and propranolol, used as a reference, were incubated in duplicate (reaction mixture volume of 0.5 ml) with female mouse microsomes (CD-1, 20 mg/ml; BD Gentest) at 37°C in a 50 mM phosphate buffer, pH 7.4, in the presence of MgCl2 (5 mM), NADP (1 mM), glucose-6-phosphate dehydrogenase (G6PD) (0.4 U/ml), and glucose-6-phosphate (5 mM). For the estimation of the intrinsic clearance, 50-μl aliquots were collected at 0, 5, 10, 20, 30, and 40 min and the reaction was stopped with 4 volumes of acetonitrile (ACN) containing the internal standard. After centrifugation at 10,000 × g for 10 min at 4°C, the supernatants were conserved at 4°C for immediate analysis or placed at −80°C in case of postponement of the analysis. Controls (time zero and final time point) in triplicate were prepared by incubation of the internal standard with microsomes denatured by acetonitrile. […] The chromatographic analysis, with a total duration of 4 min, was made with the following gradient: 0 < t < 0.2 min, 2% mobile phase B; 0.2 < t < 2 min, linear increase to 98% mobile phase B; 2 < t < 2.5 min, 98% mobile phase B; 2.5 < t < 2.6 min, linear decrease to 2% mobile phase B; 2.6 < t < 4 min, 2% mobile phase B. The quantification of each compound was obtained by converting the average of the ratios of the analyte/internal standard surfaces to the percentage of consumed product. […]

[2] = tested on: P. falciparum strain K1 in RBC; assay: In vitro chemosensitivity assay, blood stage P. falciparum K1 (SYBR green I); assay type: cell-based; conditions: Plasmodium falciparum, K1; erythrocytic stage, 72 h; read-out: EC50 (μM) for P. falciparum strain K1 in RBC
Method: Maintenance in continuous culture was done as described previously by Trager and Jensen ([46]). Cultures were maintained in fresh A+ human erythrocytes (EFS [French Blood Bank]) at 2.5% hematocrit in complete medium (RPMI 1640 with 25 mM HEPES, 25 mM NaHCO3, 10% A+ human serum) at 37°C under a reduced-O2 atmosphere (gas mixture of 10% O2, 5% CO2, and 85% N2). Parasitemia was maintained daily between 1% and 3%. The P. falciparum drug susceptibility test was carried out by comparing quantities of DNA in treated and control cultures of parasites in human erythrocytes according to a SYBR green I fluorescence-based method ([50]) using a 96-well fluorescence plate reader. Compounds, previously dissolved in DMSO (final concentration, less than 0.5% vol/vol), were incubated in a total assay volume of 200 μl of synchronized culture suspension (2% hematocrit and 0.4% parasitemia) for 72 h in a humidified atmosphere (85% N2, 10% O2, and 5% CO2) at 37°C in 96-well flat-bottom plates. Duplicate assays were performed for each sample. After incubation, plates were frozen at −20°C for 24 h. Then, the frozen plates were thawed for 1 h at 37°C. Fifteen microliters of each sample was transferred to 96-well flat-bottom black plates (Greiner Bio-one) already containing 15 μl of the SYBR green I lysis buffer (2× SYBR green I, 20 mM Tris base, pH 7.5, 20 mM EDTA, 0.008% [wt/vol] saponin, 0.08% [wt/vol] Triton X-100). […] Plates were incubated for 15 min at 37°C and then read on a Tecan Infinite F-200 spectrophotometer with excitation and emission wavelengths at 485 and 535 nm, respectively. […] EC50K1 values represent the mean values calculated from three independent experiments.

`Cc1ccc(-c2cc3nc(NC(C)(C)C)[nH]c(=O)c3s2)cc1` [Metabolite M1, 2-(tert-Butylamino)-6-(p-tolyl)thieno[3,2-d]pyrimidin-4(3H)-one] gave an EC50 [1] of 283 ± 125 nM, a half-life (Microsomal stability) of 11 min and an EC50 [2] of 0.045 µM.
